One data set deals with T1, thrombin (Homo sapiens, UniProt P00734).
T1 construct: from tissue; host or cells: human plasma (thrombin generated in situ by tissue factor, phospholipids and CaCl2)
Kind of data set: Human Thrombin Generation Assay (TGA). The data set is classed as biochemical. Particulars: concentration that reduces endogenous thrombin potential AUC by 50%; human plasma; read-out: ETP EC50. How it is done: Results for the human thrombin generation assay (TGA; not to be confused with “thermogravimetric analysis” which is used elsewhere and carries the same acronym. One of skill in the art will appreciate which meaning is intended based on context of the surrounding technical information.) were generated as follows. In a 96-well plate, 4 μL of 100, 33.3, 11.1, 3.7, 1.23, 0.41, 0.137, and 0.046 μM solutions of the test compounds in DMSO were added to sequential wells filled with 68 μL of a “TGA Working Solution.” See description of this solution as well as other relevant solutions below. The plate was incubated at room temperature for 10 minutes, whereupon 8 μL of warm “Substrate Solution” was added to each well, resulting in a 500 μM concentration of the substrate, Z-GGR-AMC (Z-Gly-Gly-Arg-7-amino-4-methylcoumarin·HCl), in each well. Fluorescence intensity data (Ex/Em 380/460 nm) collection began immediately using a Cytation™ or Synergy™ H1 96-well plate reader set to incubate the plate at 37° C. over the data collection time of 90 minutes following double-orbital shaking for a period of 4 seconds. Test compounds were measured parallel to blanks and controls, as well as to wells of the substrate in DMSO at various concentrations (2.50, 0.833, 0.278, 0.093 mM) in the buffers to generate a standard fluorescence curve. Data values were computed automatically, including the ETP EC50 value of the AUC, which is the concentration of the compound that reduces endogenous thrombin potential AUC by 50%.
The various solutions were prepared as follows. A HEPES/NaCl Assay buffer was made by combining 7.5 mL of 5M NaCl, 1.19 g 4-(2-hydroxyethyl)piperazine-1-ethanesulfonic acid (HEPES) and 230 mL of water. An “Innovin Master Solution” was made by combining 20 μL of Siemens Dade Innovin recombinant tissue factor and thromboplastin with 50 μL of 0.5 mM phospholipid-TGT acquired from DiaPharma® in 450 μL of the above HEPES/NaCl Assay buffer. This solution was then vortexed for a few seconds. Next the “Substrate Master Solution” was made by adding 3.2 mL DMSO to 100 mg of Z-GGR-AMC (Z-Gly-Gly-Arg-7-amino-4-methylcoumarin·HCl) and vortexing in a polystyrene tube. This solution was stored at −20° C. A “TGA Working Solution” was prepared by adding 6.2 mL of human plasma, 50 μL of the Innovin Master Solution, and 80 μL of phospholipids to 2.6 mL of HEPES/NaCl Assay buffer. A “Substrate Working Solution” was made immediately before addition to the assay plate by adding 200 μL of the above “Substrate Master Solution” to a pre-warmed (37° C.) mixture of 1.46 mL of HEPES/NaCl Assay buffer and 340 μL of 1M CaCl2).
For additional description of this assay, please see Robert, S. et al. ‘Is thrombin generation the new rapid, reliable and relevant pharmacological tool for the development of anticoagulant drugs?’2009, Pharmacol Res 59:160-6 as well as Hemker, H. C. et al. ‘Calibrated automated thrombin generation measurement in clotting plasma.’ 2003, Pathophysiol Haemost Thromb 33:4-15.

A short description of another data set: Rat pharmacokinetics. The data set is classed as in vivo. The note with it: Sprague-Dawley, plasma, SD rats; for C0: C0 by extrapolation. How it is done:
Rat pharmacokinetic data were generated as follows. Compounds were administered intravenously (IV) via tail vein or orally (PO) via gastric gavage to Sprague-Dawley rats fitted with surgically implanted jugular vein catheters (JVC) with nominal weights between 250 and 275 g. Nominal doses were 1 mg/kg and 5 mg/kg for IV and PO, respectively. The doses for IV administration were formulated by dissolving the test compound in a mixture (v/v/v) of 5% N,N-dimethylacetamide (DMA), 15% Kolliphor® (Solutol®) HS15, and 80% sterile water at a dose concentration of 0.25 mg/mL. The doses for PO administration were formulated either as Option A or Option B. Option A was formulated by dissolving the test compound in a mixture (v/v) of 90% Kolliphor® (Solutol®) HS15 and 10% pure ethanol at a dose concentration of 0.25 mg/mL. Option B was formulated by dissolving the test compound in a mixture (v/v) of 20% Labrasol® and 80% Phosphate buffer at pH 6.8.
Animals were housed in standard holding cages with food and water available ad libitum except for animals used for PO dosing which were fasted overnight prior to dosing. One to three rats were used for each experiment. Samples were collected manually via its JVC just before the dosing, as well as at the time points of 5 min, 15 min, 30 min, 60 min, 120 min, 4 h, 8 h, 12 h, and 24 h. Alternatively, samples were collected automatically by transferring the animal to a BASi Culex® automated blood-sampling system for the duration of the experiment. Plasma was obtained by centrifuge and stored frozen until analyzed by LC-MS/MS using an AB Sciex™ QTrap® 5500 coupled to a Shimadzu Nexera X2 fitted with a Luna® Omega 1.6 μm Polar C18 100 Å, 50×2.1 mm, acquired from Phenomenex®. Samples were compared against a standard curve of the test compound at concentrations ranging from 10,000 to 0.3 ng/mL.
Pharmacokinetic parameters were calculated from mean concentration values using a non-compartmental analysis as described below and as apparent to those of ordinary skill in the art. Concentration at time zero (C0) for the IV was established by the extrapolation of log linear regression using equal weighting on the first three sample time points. Area under the curve (AUC) values were calculated using linear trapezoidal integration.

[1] abbreviates: PO 5 mg/kg, Formulation A (90% Kolliphor HS15, 10% ethanol).
Setting [2] is: PO 5 mg/kg, Formulation A (90% Kolliphor HS15, 10% ethanol), read-out: PO AUC.
The mark [3] stands for this setting: PO 5 mg/kg, Formulation B (20% Labrasol, 80% phosphate buffer pH 6.8).
Setting [4] is: PO 5 mg/kg, Formulation B (20% Labrasol, 80% phosphate buffer pH 6.8), read-out: PO AUC.

Where two headings read alike, the source gives them in different places.

For the molecule `CC(C)(C)C(=O)n1nc(-c2cccn(CCC(=O)O)c2=O)cc1NCc1ccc(Cl)s1` [Compound 1, 3-[3-(5-{[(5-chlorothiophen-2-yl)methyl]amino}-1-(2,2-dimethylpropanoyl)-1H-pyrazol-3-yl)-2-oxo-1,2-dihydropyridin-1-yl]propanoic acid], the EC50 at thrombin fell in the range of 930 to 1700 nM. In addition, the C0 in “Rat pharmacokinetics” (IV 1 mg/kg) is 6500 ng/mL. The AUC was found to be 3000 ng·h/mL in “Rat pharmacokinetics” (IV 1 mg/kg, read-out: IV AUC) and 2200 ng·h/mL in “Rat pharmacokinetics” (setting [2]). In addition, the highest level in the data set “Rat pharmacokinetics” (setting [1]) (Cmax) was 240 ng/mL.

As to `O=C(O)CCn1cccc(-c2cc(NCc3ccc(Cl)s3)[nH]n2)c1=O` [Compound 2, 3-[3-(5-{[(5-chlorothiophen-2-yl)methyl]amino}-1H-pyrazol-3-yl)-2-oxo-1,2-dihydropyridin-1-yl]propanoic acid], the EC50 at thrombin is greater than 100000 nM. The C0 in “Rat pharmacokinetics” (IV 1 mg/kg) was 5600 ng/mL. Further, the exposure (AUC) in “Rat pharmacokinetics” (IV 1 mg/kg, read-out: IV AUC) was found to be 760 ng·h/mL; in “Rat pharmacokinetics” (setting [4]), 140 ng·h/mL. In addition, the Cmax in “Rat pharmacokinetics” (setting [3]) is 150 ng/mL.

Consider `O=C(O)Cn1cccc(-c2cc(NCc3ccc(Cl)s3)[nH]n2)c1=O` [Compound 3, 2-[3-(5-{[(5-chlorothiophen-2-yl)methyl]amino}-1H-pyrazol-3-yl)-2-oxo-1,2-dihydropyridin-1-yl]acetic acid], for which, at thrombin, the concentration for a half-maximal effect (EC50) is greater than 100000 nM.

For the molecule `CC(C)(C)C(=O)n1nc(-c2cccn(CC(=O)O)c2=O)cc1NCc1ccc(Cl)s1` [Compound 4, 2-[3-(5-{[(5-chlorothiophen-2-yl)methyl]amino}-1-(2,2-dimethylpropanoyl)-1H-pyrazol-3-yl)-2-oxo-1,2-dihydropyridin-1-yl]acetic acid], the EC50 at thrombin was in the range of 2800 to 6200 nM. The C0 in the data set “Rat pharmacokinetics” (IV 1 mg/kg) was 12000 ng/mL. Besides, the AUC in “Rat pharmacokinetics” (IV 1 mg/kg, read-out: IV AUC) was determined as 2300 ng·h/mL; in “Rat pharmacokinetics” (setting [2]) it was 2300 ng·h/mL. In addition, in “Rat pharmacokinetics” (setting [1]), the peak level (Cmax) was 260 ng/mL.

Turning to `CC(C)(C)C(=O)n1nc(-c2cccn(CCCC(=O)O)c2=O)cc1NCc1ccc(Cl)s1` [Compound 5, 4-[3-(5-{[(5-chlorothiophen-2-yl)methyl]amino}-1-(2,2-dimethylpropanoyl)-1H-pyrazol-3-yl)-2-oxo-1,2-dihydropyridin-1-yl]butanoic acid], the 50% effective concentration (EC50) at thrombin is 1400 nM. In addition, the C0 in the data set “Rat pharmacokinetics” (IV 1 mg/kg) was 5400 ng/mL. The AUC worked out at 3300 ng·h/mL in “Rat pharmacokinetics” (IV 1 mg/kg, read-out: IV AUC) and 2100 ng·h/mL in the data set “Rat pharmacokinetics” (setting [4]). This molecule showed a peak concentration (Cmax) in the data set “Rat pharmacokinetics” (setting [3]) of 930 ng/mL.

On to `CC(C)(C)C(=O)n1nc(-c2cccn(CCC(N)=O)c2=O)cc1NCc1ccc(Cl)s1` [Compound 8, 3-[3-(5-{[(5-chlorothiophen-2-yl)methyl]amino}-1-(2,2-dimethylpropanoyl)-1H-pyrazol-3-yl)-2-oxo-1,2-dihydropyridin-1-yl]propanamide], for which the EC50 on thrombin is 990 nM. For the same molecule, the Cmax in “Rat pharmacokinetics” (setting [3]) amounted to 230 ng/mL. Besides, the AUC in the data set “Rat pharmacokinetics” (setting [4]) was 120 ng·h/mL.

As for `CC(C)(N)Cn1cccc(-c2cc(NCc3ccc(Cl)s3)n(C(=O)c3ccoc3)n2)c1=O` [Compound 9, 1-(2-amino-2-methylpropyl)-3-(5-{[(5-chlorothiophen-2-yl)methyl]amino}-1-(furan-3-carbonyl)-1H-pyrazol-3-yl)-1,2-dihydropyridin-2-one], on thrombin, the EC50 is 430 nM. In addition, the C0 in the data set “Rat pharmacokinetics” (IV 1 mg/kg) is 94 ng/mL. In addition, the AUC in the data set “Rat pharmacokinetics” (IV 1 mg/kg, read-out: IV AUC) came out at 180 ng·h/mL; in “Rat pharmacokinetics” (setting [4]) it was 73 ng·h/mL. For the same molecule, the maximum concentration (Cmax) in the data set “Rat pharmacokinetics” (setting [3]) was found to be 5.8 ng/mL.

With `CCC(C)(C)C(=O)n1nc(-c2cccn(CCC(=O)O)c2=O)cc1NCc1ccc(Cl)s1` [Compound 11, 3-[3-(5-{[(5-chlorothiophen-2-yl)methyl]amino}-1-(2,2-dimethylbutanoyl)-1H-pyrazol-3-yl)-2-oxo-1,2-dihydropyridin-1-yl]propanoic acid], the half-maximal effective concentration (EC50) at thrombin amounted to 960 nM. Moreover, in the data set “Rat pharmacokinetics” (IV 1 mg/kg), the C0 is 6100 ng/mL. Further, the AUC in the data set “Rat pharmacokinetics” (IV 1 mg/kg, read-out: IV AUC) is 3200 ng·h/mL; in the data set “Rat pharmacokinetics” (setting [4]) it was 2100 ng·h/mL. Further, the highest concentration (Cmax) in the data set “Rat pharmacokinetics” (setting [3]) was determined as 1200 ng/mL.

As to `O=C(O)CCn1cccc(-c2cc(NCc3ccc(Cl)s3)n(C(=O)c3ccoc3)n2)c1=O` [Compound 12, 3-[3-(5-{[(5-chlorothiophen-2-yl)methyl]amino}-1-(furan-3-carbonyl)-1H-pyrazol-3-yl)-2-oxo-1,2-dihydropyridin-1-yl]propanoic acid], the EC50 on thrombin was in the range of 1400 to 2100 nM. Also, in the data set “Rat pharmacokinetics” (IV 1 mg/kg), the C0 was 4600 ng/mL. The AUC in the data set “Rat pharmacokinetics” (IV 1 mg/kg, read-out: IV AUC) was determined as 930 ng·h/mL; in the data set “Rat pharmacokinetics” (setting [2]), 28 ng·h/mL. Moreover, in the data set “Rat pharmacokinetics” (setting [1]), the Cmax came to 19 ng/mL.

What is called EC50 is the concentration needed to bring the measured effect to its halfway point. In general, AUC refers to the area under the concentration-time curve, a measure of exposure. In general, Cmax refers to the maximum level reached in the sampled fluid or tissue.

The values above are taken from US11865110B2, “Thrombin inhibitors, formulations, and uses thereof” (VERSEON INTERNATIONAL CORPORATION, priority 2018, dated 2024).
